Test results from PMC5125662, “The Open Form Inducer Approach for Structure-Based Drug Design” (PLoS ONE, 2016).
Where two headings read alike, the source gives them in different places.

How the values were obtained:
TcDHODH = molecular target: T1, TcDHODH (Trypanosoma cruzi, UniProt Q4D3W2); test: biochemical; conditions: for IC50: 500 μM L-dihydroorotate, 2 mM fumarate, pH 8.0; for Ki: read-out: TcDHODH Ki^app
T1 construct: made in house
T1 sequence (Q4D3W2 1-314): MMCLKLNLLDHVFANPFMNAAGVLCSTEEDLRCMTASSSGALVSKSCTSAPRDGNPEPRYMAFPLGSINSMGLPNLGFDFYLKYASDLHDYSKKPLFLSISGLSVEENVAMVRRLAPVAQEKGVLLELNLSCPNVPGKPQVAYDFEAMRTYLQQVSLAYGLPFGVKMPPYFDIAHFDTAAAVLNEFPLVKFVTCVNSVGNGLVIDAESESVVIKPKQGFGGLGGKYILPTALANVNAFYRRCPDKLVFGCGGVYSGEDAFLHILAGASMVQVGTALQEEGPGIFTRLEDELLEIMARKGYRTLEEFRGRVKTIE

[1] = set-up: method as in earlier work; conditions: cited from earlier work

Structure (SMILES) | IC50 (TcDHODH) | Ki (TcDHODH; calculated from IC50 by Cheng-Prusoff equation, Km for dihydroorotate […]) | pKa [1] | Ki (TcDHODH)
O=C(O)c1cc(=O)[nH]c(=O)[nH]1 [ORO, orotate, reference compound] | 112 ± 21 µM | 5.51 µM | – | –
O=C(O)c1ccc2ccccc2c1 [2-naphthoic acid] | – | – | 4.17 | –
CC(C)(C)CCc1c(C(=O)O)[nH]c(=O)[nH]c1=O [Compound 1] | ≥ 400 µM | – | – | > 19.7 µM
